Measurements taken from patent US12097173B2, “Volatile organic compound formulations having antimicrobial activity” (priority 2019, dated 2024).

How the values were obtained:
Assay type in all cases: cell-based
Cercospora beticola = assay: plate bioassay of volatile test mixtures, growth inhibition; conditions: 30 hr at 22° C.; esters with 1:1 v/v propanoic acid and isobutryic acid (acids to ester 7:2 v/v), 9 ul; acids 7 ul
Description: (§1) FIG. 1 illustrates a plate bioassay to determine the bioactivity of various esters when combined with a 1:1 mix of the two organic acids as per Table 2. The test organisms were as follows—Cercospora (dark-lower left bottom) then clockwise—Phytophthora, Verticillium, Sclerotinia, Pythium. Fusarium, Trichoderma, Rhizoctonia, and Aspergillus. The streaks were Saccharomyces (far right bottom) then Candida, E coli and Bacillus (left bottom). A=control plate, and B=plate with System 1 after incubation for 30 hr.
(§2) FIG. 9 depicts the biological activities of various test mixtures against a panel of test microbes. A small plug of each organism was placed in the periphery of the PDA plate. In the center well was placed the test solution in the plastic cup holder. A control plate (A) was also set up. After 30 hr the growth of the test organisms was compared to that of the control and the % inhibition was calculated. The (B) plate contained the test mixture. Measurements were made 30 hr after plate set up.
(§3) FIG. 1. Indicates how the assays were done to yield the data sets in Table 1. The various esters were combined with a 1:1 mixture of propanoic acid and isobutryic acid and these were added 7:2 V/V with the ester to be tested.
(§4) Shown in Table 1, are the inhibition and killing effects of propanoic acid, and isobutryic acid together and alone and with various esters. The tests were conducted over the course of 30 hr at 22° C. Measurements were made on appropriate controls and thus the percentage of inhibition calculations could be made on treatments vs the growth on a control organism (non-treated). The bacteria and yeast like organisms were evaluated on the basis of relative growth rates after 30 hr. Those highlighted areas on the table show those compounds (esters) having the most compatibility with propanoic and isobutryic acid 1:1 v/v mixtures with the appropriate esters at a 7:2 ratio—Systems 1 and 2 above. It is from this test that Systems 1 and 2 were discovered. The acids were added at […] individually and combination of the esters with the acids were added at the […] in the plate assay.
(§5) Tests were conducted as similarly described for Systems 1 and 2 above (FIG. 9) to ascertain the biological activities of various test mixtures against a panel of test microbes. A small plug of each organism was placed in the periphery of the PDA plate. In the center well was placed the test solution in the plastic cup holder. A control plate (A) was also set up. After 30 hr the growth of the test organisms was compared to that of the control and the % inhibition was calculated. The (B) plate contained the test mixture. Measurements were made 30 hr after plate set up.

Phytophthora cinnamomi = assay: as above; conditions: 30 hr at 22° C.; esters with 1:1 v/v propanoic acid and isobutryic acid (acids to ester 7:2 v/v), 9 ul; acids 7 ul
Description: as §1, §2, §3, §4, §5

Pythium ultimum = assay: as above; conditions: 30 hr at 22° C.; esters with 1:1 v/v propanoic acid and isobutryic acid (acids to ester 7:2 v/v), 9 ul; acids 7 ul
Description: as §1, §2, §3, §4, §5

Rhizoctonia solani = assay: as above; conditions: 30 hr at 22° C.; esters with 1:1 v/v propanoic acid and isobutryic acid (acids to ester 7:2 v/v), 9 ul; acids 7 ul
Description: as §1, §2, §3, §4, §5

Trichoderma viridae = assay: as above; conditions: 30 hr at 22° C.; esters with 1:1 v/v propanoic acid and isobutryic acid (acids to ester 7:2 v/v), 9 ul; acids 7 ul
Description: as §1, §2, §3, §4, §5

Verticillium dahliae = assay: as above; conditions: 30 hr at 22° C.; esters with 1:1 v/v propanoic acid and isobutryic acid (acids to ester 7:2 v/v), 9 ul; acids 7 ul
Description: as §1, §2, §3, §4, §5

Sclerotinia sclerotiorum = assay: as above; conditions: 30 hr at 22° C.; esters with 1:1 v/v propanoic acid and isobutryic acid (acids to ester 7:2 v/v), 9 ul; acids 7 ul
Description: as §1, §2, §3
The tests were conducted over the course of 30 hr at 22° C. Measurements were made on appropriate controls and thus the percentage of inhibition calculations could be made on treatments vs the growth on a control organism (non-treated). The bacteria and yeast like organisms were evaluated on the basis of relative growth rates after 30 hr. […] The acids were added at […] individually and combination of the esters with the acids were added at the […] in the plate assay.
as §5

Aspergillus fumigatus = assay: as above; conditions: 30 hr at 22° C.; esters with 1:1 v/v propanoic acid and isobutryic acid (acids to ester 7:2 v/v), 9 ul; acids 7 ul
Description: as §1, §3, §4

Fusarium subglutinans = assay: as above; conditions: 30 hr at 22° C.; esters with 1:1 v/v propanoic acid and isobutryic acid (acids to ester 7:2 v/v), 9 ul; acids 7 ul
Description: as §1, §3, §4

Bacillus subtilus = assay: plate bioassay of volatile test mixtures, relative growth of streak; conditions: relative growth after 30 hr at 22° C.; esters with 1:1 v/v propanoic acid and isobutryic acid (7:2 v/v), 9 ul; acids 7 ul
Description: as §1, §2, §3, §4, §5

Candida albicans = assay: as above; conditions: relative growth after 30 hr at 22° C.; esters with 1:1 v/v propanoic acid and isobutryic acid (7:2 v/v), 9 ul; acids 7 ul
Description: as §1, §2, §3, §4, §5

Escherichia coli = assay: as above; conditions: relative growth after 30 hr at 22° C.; esters with 1:1 v/v propanoic acid and isobutryic acid (7:2 v/v), 9 ul; acids 7 ul
Description: as §1, §2, §3, §4, §5

Saccharomyces cerevicae = assay: as above; conditions: relative growth after 30 hr at 22° C.; esters with 1:1 v/v propanoic acid and isobutryic acid (7:2 v/v), 9 ul; acids 7 ul
Description: as §1, §2, §3, §4, §5

## CCCOC(=O)C(C)C [Propyl Isobutyrate]
Cercospora beticola
  inhibition of Cercospora beticola: 95%
Phytophthora cinnamomi
  inhibition of Phytophthora cinnamomi: 87%
Pythium ultimum
  inhibition of Pythium ultimum: 98%
Rhizoctonia solani
  inhibition of Rhizoctonia solani: 97%
Trichoderma viridae
  inhibition of Trichoderma viridae: 33%
Verticillium dahliae
  inhibition of Verticillium dahliae: 88%
Sclerotinia sclerotiorum
  inhibition of Sclerotinia sclerotiorum: 40%
Aspergillus fumigatus
  inhibition of Aspergillus fumigatus: 50%
Fusarium subglutinans
  inhibition of Fusarium subglutinans: 50%
Bacillus subtilus
  growth of Bacillus subtilus: Inhibited
Candida albicans
  growth of Candida albicans: Growth Observed
Escherichia coli
  growth of Escherichia coli: Inhibited
Saccharomyces cerevicae
  growth of Saccharomyces cerevicae: Growth Observed

## CCC(=O)OCC(C)C [Isobutyl Propionate]
Cercospora beticola
  inhibition of Cercospora beticola: 100%
Phytophthora cinnamomi
  inhibition of Phytophthora cinnamomi: 33%
Pythium ultimum
  inhibition of Pythium ultimum: 100%
Rhizoctonia solani
  inhibition of Rhizoctonia solani: 100%
Trichoderma viridae
  inhibition of Trichoderma viridae: 40%
Verticillium dahliae
  inhibition of Verticillium dahliae: 88%
Sclerotinia sclerotiorum
  inhibition of Sclerotinia sclerotiorum: 80%
Aspergillus fumigatus
  inhibition of Aspergillus fumigatus: 80%
Fusarium subglutinans
  inhibition of Fusarium subglutinans: 67%
Bacillus subtilus
  growth of Bacillus subtilus: No Growth
Candida albicans
  growth of Candida albicans: Growth Observed
Escherichia coli
  growth of Escherichia coli: No Growth
Saccharomyces cerevicae
  growth of Saccharomyces cerevicae: Growth Observed

## CC(=O)OCC(C)C [Isobutyl Acetate]
Cercospora beticola
  inhibition of Cercospora beticola: 95%
Phytophthora cinnamomi
  inhibition of Phytophthora cinnamomi: 67%
Pythium ultimum
  inhibition of Pythium ultimum: 100%
Rhizoctonia solani
  inhibition of Rhizoctonia solani: 57%
Trichoderma viridae
  inhibition of Trichoderma viridae: 20%
Verticillium dahliae
  inhibition of Verticillium dahliae: 60%
Sclerotinia sclerotiorum
  inhibition of Sclerotinia sclerotiorum: 20%
Aspergillus fumigatus
  inhibition of Aspergillus fumigatus: 0%
Fusarium subglutinans
  inhibition of Fusarium subglutinans: 67%
Bacillus subtilus
  growth of Bacillus subtilus: Inhibited
Candida albicans
  growth of Candida albicans: Growth Observed
Escherichia coli
  growth of Escherichia coli: Inhibited
Saccharomyces cerevicae
  growth of Saccharomyces cerevicae: Growth Observed

## CCCC(=O)OCC(C)C [Isobutyl Butyrate]
Cercospora beticola
  inhibition of Cercospora beticola: 100%
Phytophthora cinnamomi
  inhibition of Phytophthora cinnamomi: 33%
Pythium ultimum
  inhibition of Pythium ultimum: 100%
Rhizoctonia solani
  inhibition of Rhizoctonia solani: 100%
Trichoderma viridae
  inhibition of Trichoderma viridae: 47%
Verticillium dahliae
  inhibition of Verticillium dahliae: 96%
Sclerotinia sclerotiorum
  inhibition of Sclerotinia sclerotiorum: 70%
Aspergillus fumigatus
  inhibition of Aspergillus fumigatus: 0%
Fusarium subglutinans
  inhibition of Fusarium subglutinans: 33%
Bacillus subtilus
  growth of Bacillus subtilus: No Growth
Candida albicans
  growth of Candida albicans: Growth Observed
Escherichia coli
  growth of Escherichia coli: No Growth
Saccharomyces cerevicae
  growth of Saccharomyces cerevicae: Growth Observed

## CC(C)CCOC(=O)C(C)C [Isoamyl Isobutyrate]
Cercospora beticola
  inhibition of Cercospora beticola: 95%
Phytophthora cinnamomi
  inhibition of Phytophthora cinnamomi: 97%
Pythium ultimum
  inhibition of Pythium ultimum: 100%
Rhizoctonia solani
  inhibition of Rhizoctonia solani: 100%
Trichoderma viridae
  inhibition of Trichoderma viridae: 67%
Verticillium dahliae
  inhibition of Verticillium dahliae: 96%
Sclerotinia sclerotiorum
  inhibition of Sclerotinia sclerotiorum: 80%
Aspergillus fumigatus
  inhibition of Aspergillus fumigatus: 80%
Fusarium subglutinans
  inhibition of Fusarium subglutinans: 67%
Bacillus subtilus
  growth of Bacillus subtilus: No Growth
Candida albicans
  growth of Candida albicans: Growth Observed
Escherichia coli
  growth of Escherichia coli: No Growth
Saccharomyces cerevicae
  growth of Saccharomyces cerevicae: Growth Observed

## CC(C)COC(=O)C(C)C [Isobutyl Isobutyrate]
Cercospora beticola
  inhibition of Cercospora beticola: 95%
Phytophthora cinnamomi
  inhibition of Phytophthora cinnamomi: 0%
Pythium ultimum
  inhibition of Pythium ultimum: 100%
Rhizoctonia solani
  inhibition of Rhizoctonia solani: 86%
Trichoderma viridae
  inhibition of Trichoderma viridae: 47%
Verticillium dahliae
  inhibition of Verticillium dahliae: 92%
Sclerotinia sclerotiorum
  inhibition of Sclerotinia sclerotiorum: 75%
Aspergillus fumigatus
  inhibition of Aspergillus fumigatus: 80%
Fusarium subglutinans
  inhibition of Fusarium subglutinans: 50%
Bacillus subtilus
  growth of Bacillus subtilus: Inhibited
Candida albicans
  growth of Candida albicans: Growth Observed
Escherichia coli
  growth of Escherichia coli: Inhibited
Saccharomyces cerevicae
  growth of Saccharomyces cerevicae: Growth Observed

## CCOC(=O)C(C)C [Ethyl Isobutyrate]
Cercospora beticola
  inhibition of Cercospora beticola: 95%
Phytophthora cinnamomi
  inhibition of Phytophthora cinnamomi: 100%
Pythium ultimum
  inhibition of Pythium ultimum: 100%
Rhizoctonia solani
  inhibition of Rhizoctonia solani: 100%
Trichoderma viridae
  inhibition of Trichoderma viridae: 67%
Verticillium dahliae
  inhibition of Verticillium dahliae: 80%
Sclerotinia sclerotiorum
  inhibition of Sclerotinia sclerotiorum: 90%
Aspergillus fumigatus
  inhibition of Aspergillus fumigatus: 80%
Fusarium subglutinans
  inhibition of Fusarium subglutinans: 67%
Bacillus subtilus
  growth of Bacillus subtilus: No Growth
Candida albicans
  growth of Candida albicans: Growth Observed
Escherichia coli
  growth of Escherichia coli: No Growth
Saccharomyces cerevicae
  growth of Saccharomyces cerevicae: Growth Observed

## CCCC(=O)OCCC(C)C [Isoamyl Butyrate]
Cercospora beticola
  inhibition of Cercospora beticola: 100%
Phytophthora cinnamomi
  inhibition of Phytophthora cinnamomi: 100%
Pythium ultimum
  inhibition of Pythium ultimum: 100%
Rhizoctonia solani
  inhibition of Rhizoctonia solani: 100%
Trichoderma viridae
  inhibition of Trichoderma viridae: 90%
Verticillium dahliae
  inhibition of Verticillium dahliae: 100%
Sclerotinia sclerotiorum
  inhibition of Sclerotinia sclerotiorum: 95%
Aspergillus fumigatus
  inhibition of Aspergillus fumigatus: 90%
Fusarium subglutinans
  inhibition of Fusarium subglutinans: 100%
Bacillus subtilus
  growth of Bacillus subtilus: No Growth
Candida albicans
  growth of Candida albicans: No Growth
Escherichia coli
  growth of Escherichia coli: No Growth
Saccharomyces cerevicae
  growth of Saccharomyces cerevicae: Growth Observed

## CC(C)C(=O)O [Isobutyric Acid, reference compound]
Cercospora beticola
  inhibition of Cercospora beticola: 95%
Phytophthora cinnamomi
  inhibition of Phytophthora cinnamomi: 100%
Pythium ultimum
  inhibition of Pythium ultimum: 100%
Rhizoctonia solani
  inhibition of Rhizoctonia solani: 86%
Trichoderma viridae
  inhibition of Trichoderma viridae: 27%
Verticillium dahliae
  inhibition of Verticillium dahliae: 90%
Sclerotinia sclerotiorum
  inhibition of Sclerotinia sclerotiorum: 40%
Aspergillus fumigatus
  inhibition of Aspergillus fumigatus: 90%
Fusarium subglutinans
  inhibition of Fusarium subglutinans: 67%
Bacillus subtilus
  growth of Bacillus subtilus: No Growth
Candida albicans
  growth of Candida albicans: Growth Observed
Escherichia coli
  growth of Escherichia coli: No Growth
Saccharomyces cerevicae
  growth of Saccharomyces cerevicae: Growth Observed
